Assay results taken from the supplement of paper PMC10307832.

How the values were obtained:
Assay in all cases: relative viability (nuclei count vs DMSO), 5 days (fraction); higher = more cells survive
[1] = compound: CC1(C)CNc2cc(NC(=O)c3cccnc3NCc3ccncc3)ccc21 [Motesanib] + O=C(c1cc(Cc2n[nH]c(=O)c3ccccc23)ccc1F)N1CCN(C(=O)C2CC2)CC1 [Olaparib] (partner 8 µM)
Procedure, shortened: (§1)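 Lung cancer cell lines were seeded in 1536-well plates and dosed by pin tool the next day, with either a single drug or a fixed anchor-drug dose combined with five library-drug doses (not always all listed) spaced in √10 steps. Five days later, one step fixed the cells and stained their nuclei (final 0.05% Triton X-100, 1% formaldehyde, 1 ug/ml Hoechst), and nuclei were counted on 4× images. Relative viability is the nuclei count in treated wells divided by the count in vehicle wells, and each value is the median of duplicate plates.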

[2] = compound: C[C@@]1(C(=O)Nc2ccc(F)nc2)CCCN1c1nc(Nc2cc(C3CC3)n[nH]2)c2cccn2n1 + CC(C)C[C@H](NC(=O)[C@H](Cc1ccccc1)NC(=O)c1cnccn1)B(O)O [Bortezomib] (partner 0.002 µM)
Procedure, shortened: as §1

[3] = compound: CC1(C)CNc2cc(NC(=O)c3cccnc3NCc3ccncc3)ccc21 [Motesanib] + Cc1nc(NC(=O)N2CCC[C@H]2C(N)=O)sc1-c1ccnc(C(C)(C)C(F)(F)F)c1 [Alpelisib] (partner 2 µM)
Procedure, shortened: as §1

[4] = compound: C[C@@]1(C(=O)Nc2ccc(F)nc2)CCCN1c1nc(Nc2cc(C3CC3)n[nH]2)c2cccn2n1 + C[C@]1(O)C[C@@H](c2nc(-c3ccc4ccc(-c5ccccc5)nc4c3)c3c(N)nccn32)C1 [Linsitinib] (partner 1 µM)
Procedure, shortened: as §1

Cell Line	relative viability ([1]; first compound 0.01 µM)	relative viability ([1]; first compound 0.03162 µM)	relative viability ([1]; first compound 0.1 µM)	relative viability ([1]; first compound 0.3162 µM)	relative viability ([1]; first compound 1 µM)	relative viability ([2]; first compound 0.04 µM)	relative viability ([2]; first compound 0.1265 µM)	relative viability ([2]; first compound 0.4 µM)	relative viability ([2]; first compound 1.265 µM)	relative viability ([3]; first compound 0.01 µM)	relative viability ([3]; first compound 0.03162 µM)	relative viability ([3]; first compound 0.1 µM)	relative viability ([3]; first compound 0.3162 µM)	relative viability ([3]; first compound 1 µM)	relative viability ([4]; first compound 0.04 µM)	relative viability ([4]; first compound 0.1265 µM)	relative viability ([4]; first compound 0.4 µM)	relative viability ([4]; first compound 1.265 µM)
EBC-1	0.732	0.674	0.694	0.729	0.783	0.527	0.509	0.52	0.302	0.795	0.914	0.899	0.847	0.925	0.953	0.76	0.706	0.891
NCI-H1915	0.246	0.262	0.258	0.277	0.286	1.06	0.95	0.952	1.01	1.02	1.02	1.03	1.02	1.06	1.08	1.08	1.08	1.16
NCI-H596	0.792	0.623	0.648	0.677	0.646	0.908	0.892	0.929	1	0.489	0.417	0.496	0.542	0.498	0.954	1.02	0.939	1.18
NCI-H322M	0.82	0.762	0.886	0.803	0.812	1.22	0.894	1.06	1.1	0.713	0.737	0.837	0.751	0.778	0.968	0.83	0.865	0.96
NCI-H1299	0.938	0.973	1.03	1.02	0.898	1.05	0.975	1.03	1.03	1.03	1.09	1.15	1.11	1.12	0.988	1.04	1	0.988
NCI-H2228	0.794	0.74	0.668	0.838	0.749	1.25	0.731	0.835	0.751	0.767	0.713	0.722	0.777	0.806	0.679	0.616	0.69	0.769
IA-LM	0.757	0.834	0.722	0.855	0.822	0.844	0.933	0.807	0.48	0.616	0.788	0.711	0.891	0.746	0.602	0.718	0.459	0.452
NCI-H647	0.48	0.638	0.496	0.629	0.611	1.15	0.9	0.706	0.791	1.02	1.21	1.1	1.33	1.09	1.17	1.2	0.952	1.26
NCI-H2085	0.756	0.777	0.764	0.745	0.843	1.04	0.927	0.834	0.945	0.939	1.01	1.02	0.943	1.05	0.877	0.873	0.809	0.822
